The text below walks through data of ChEMBL document CHEMBL3351635, “Novel nitro(triazole/imidazole)-based heteroarylamides/sulfonamides as potential antitrypanosomal agents” (Eur J Med Chem, 2014).

A short description of data set [1]: Selectivity index, ratio of IC50 for rat L6 cells to IC50 for bloodstream forms of Trypanosoma brucei rhodesiense STIB 900. The format is toxicity, cell-based. As to conditions: read-out: Ratio IC50.
Data set [2] deals with Trypanosoma cruzi. Nature of the data set: Antiparasitic activity against trypomastigote forms of Trypanosoma cruzi Tulahuen C2C4 infected in rat L6 cells assessed as inhibition of growth after 96 hrs by inverted microscopy. Type of data set: functional, organism-based. The note with it: Tulahuen C2C4, L6, 96 h.
Data set [3] is described as follows: Selectivity index, ratio of IC50 for rat L6 cells to IC50 for axenic amastigote forms of Leishmania donovani MHOM/ET/67/L82. The format is toxicity, cell-based. As to conditions: read-out: Ratio IC50.
Data set [4] is described as follows: Selectivity index, ratio of IC50 for rat L6 cells to IC50 for trypomastigote forms of Trypanosoma cruzi Tulahuen C2C4 infected in rat L6 cells. Type of data set: toxicity, cell-based. As to conditions: read-out: Ratio IC50.
Data set [5] concerns the target Sterol 14-alpha demethylase (Trypanosoma cruzi (strain CL Brener), UniProt Q7Z1V1). Nature of the data set: Binding affinity to Trypanosoma cruzi CYP51.
Data set [6] concerns Trypanosoma cruzi. Nature of the data set: Ratio of benznidazol IC50 to compound IC50 for trypomastigote forms of Trypanosoma cruzi Tulahuen C2C4 infected in rat L6 cells assessed as inhibition of growth after 96 hrs by inverted microscopy. The format is functional.
Data set [7] deals with Trypanosoma brucei brucei. Nature of the data set: Ratio of IC50 for bloodstream forms of Trypanosoma brucei brucei Lister 427 clone 221a overexpressing type I nitroreductase in absence of tetracycline to IC50 for bloodstream forms of Trypanosoma brucei brucei Lister 427 clone 221a overexpressing type I nitroreductase in presence of tetracycline. The format is functional.

The test system of data set [8] is Trypanosoma brucei brucei. The data set is described as follows: Trypanocidal activity against wild type bloodstream forms of Trypanosoma brucei brucei Lister 427 clone 221a assessed as inhibition of proliferation after 3 days by resazurin assay. The format is functional, organism-based. The note with it: 72 h.
The subject of the next data set is L6. The data set is described as follows: Cytotoxicity against rat L6 cells after 72 hrs by alamar blue assay. The format is cell-based. As to conditions: L6, 72 h.
Data set [9] can be described thus: Selectivity ratio of IC50 for trypomastigote forms of Trypanosoma cruzi Tulahuen C2C4 infected in rat L6 cells to IC50 for bloodstream forms of Trypanosoma brucei rhodesiense STIB 900. The format is functional.
The next data set deals with Leishmania donovani. The data set is described as follows: Antiparasitic activity against axenic amastigote forms of Leishmania donovani MHOM/ET/67/L82 assessed as inhibition of growth after 72 hrs by resazurin assay. The format is functional, organism-based. The note with it: MHOM/ET/67/L82, 72 h. For orientation: Alamar Blue is a resazurin reagent that responds to reducing activity.

In data set [10] the test system is Trypanosoma brucei brucei. The data set is described as follows: Trypanocidal activity against bloodstream forms of Trypanosoma brucei brucei Lister 427 clone 221a overexpressing type I nitroreductase assessed as inhibition of proliferation after 3 days by resazurin assay in presence of tetracycline. Type of data set: functional, organism-based. The note with it: 72 h.

Data set [11] has as its system Trypanosoma brucei rhodesiense. The data set is described as follows: Antiparasitic activity against bloodstream forms of Trypanosoma brucei rhodesiense STIB 900 assessed as inhibition of growth after 72 hrs by resazurin assay. The format is functional, organism-based. As to conditions: STIB 900, 72 h.
In data set [12] the test system is Trypanosoma brucei brucei. Nature of the data set: Trypanocidal activity against bloodstream forms of Trypanosoma brucei brucei Lister 427 clone 221a overexpressing type I nitroreductase assessed as inhibition of proliferation after 3 days by resazurin assay in absence of tetracycline. The format is functional, organism-based. The note with it: 72 h.

Sequence of Sterol 14-alpha demethylase (Q7Z1V1 whole entry): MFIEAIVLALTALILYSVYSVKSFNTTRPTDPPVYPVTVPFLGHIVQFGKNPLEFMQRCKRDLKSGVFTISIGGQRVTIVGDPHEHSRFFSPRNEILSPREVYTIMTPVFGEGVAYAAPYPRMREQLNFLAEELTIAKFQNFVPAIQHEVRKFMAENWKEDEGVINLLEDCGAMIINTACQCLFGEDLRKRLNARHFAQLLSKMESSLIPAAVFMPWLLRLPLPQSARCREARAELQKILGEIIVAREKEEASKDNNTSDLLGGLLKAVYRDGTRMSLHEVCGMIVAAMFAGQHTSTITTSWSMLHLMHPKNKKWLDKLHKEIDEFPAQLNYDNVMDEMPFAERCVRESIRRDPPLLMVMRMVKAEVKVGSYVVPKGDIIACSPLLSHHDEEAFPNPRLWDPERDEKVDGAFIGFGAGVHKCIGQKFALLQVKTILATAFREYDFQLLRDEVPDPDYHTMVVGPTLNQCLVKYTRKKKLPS

A word on the IC50: it is the point on the concentration scale where inhibition reaches its midpoint. A word on the Kd: it is the free concentration of one partner at which half of the binding sites on the other are occupied at equilibrium, for simple one-to-one binding. Read a low Kd as a tighter complex. On to `O=[N+]([O-])c1ncn(CCCNS(=O)(=O)c2ccc(Cl)s2)n1`, for which the selectivity ratio turned out to be 122 in [1], 7 in [3] and 556 in data set [4]. Besides, in the data set on Trypanosoma cruzi [2], the IC50 was found to be 438 nM. This compound gave a dissociation constant Kd in data set [5] of 65200 nM. In addition, the “Ratio IC50” value with Trypanosoma cruzi [6] was determined as 3.6; in [7] it was 18.9.

Take `O=C(NCCCn1cnc([N+](=O)[O-])n1)c1ccnc(Cl)c1`: the IC50 in data set [8] was more than 7990 nM; in the data set on L6 it was more than 322000 nM; with Trypanosoma cruzi [2], 13500 nM; with Leishmania donovani it was 82400 nM; in data set [10], 5660 nM; in data set [11], 2250 nM. The IC50 in data set [12] worked out at 6990 nM. Also, the selectivity ratio in data set [1] was more than 143; in data set [3], more than 4; in data set [4], more than 24. Also, the “Ratio IC50” value in data set [9] amounted to 6; in the data set on Trypanosoma cruzi [6], 0.17; in data set [7] it was 1.2.

Take `O=C(NCCCn1cnc([N+](=O)[O-])n1)c1cc2ccccc2s1`: the IC50 in data set [8] is more than 930 nM; with L6 it was 124000 nM; in the data set with Trypanosoma cruzi [2], 293 nM; in the data set on Leishmania donovani, 14700 nM; in data set [10], 70 nM; in data set [11], 187 nM. Moreover, the IC50 in data set [12] amounted to 1290 nM. Besides, the values for the selectivity ratio in data set [1], in data set [3] and in data set [4] were 665, 8 and 425, respectively. Further, the “Ratio IC50” value with Trypanosoma cruzi [6] stood at 7.72; in data set [7], 18.4.

With `O=C(NCCCCn1cnc([N+](=O)[O-])n1)c1sc2ccccc2c1Cl`, the IC50 in [8] was 440 nM; in the data set with L6, more than 264000 nM; in the data set on Trypanosoma cruzi [2] it was 187 nM; in the data set with Leishmania donovani it was 11500 nM; in [10], 160 nM; in data set [11] it was 978 nM. Also, the IC50 in [12] worked out at 480 nM. For the same compound, the selectivity ratio in [1] was more than 270; in [3], more than 23; in [4] it was more than 1410. Moreover, the entries for the “Ratio IC50” value (with Trypanosoma cruzi [6]; in data set [7]) were 12.09 and 3, respectively.

For `O=C(NCCCCn1cnc([N+](=O)[O-])n1)c1nc2ccccc2s1`, the IC50 in data set [8] is 1360 nM; in the data set on L6 it was 154000 nM; in the data set on Trypanosoma cruzi [2], 422 nM; in the data set on Leishmania donovani, 27700 nM; in data set [10], 360 nM; in [11] it was 1730 nM. In addition, the IC50 in data set [12] was 1390 nM. For the same compound, the selectivity ratio in data set [1] stood at 89; in [3], 6; in data set [4], 364. In addition, the “Ratio IC50” value with Trypanosoma cruzi [6] is recorded as 5.36; in data set [7], 3.9.
